# Test results as given in ChEMBL document CHEMBL5696441 (Nat Chem Biol, 2011).
# Assays:
# [1] = target: T1, Serine/threonine-protein kinase Nek1 (Homo sapiens) (UniProt Q96PY6); assay: Inhibition of NEK1 (unknown origin) assessed as remaining activity at 1 uM by Kinome scan method relative to control
# T1 sequence (whole entry): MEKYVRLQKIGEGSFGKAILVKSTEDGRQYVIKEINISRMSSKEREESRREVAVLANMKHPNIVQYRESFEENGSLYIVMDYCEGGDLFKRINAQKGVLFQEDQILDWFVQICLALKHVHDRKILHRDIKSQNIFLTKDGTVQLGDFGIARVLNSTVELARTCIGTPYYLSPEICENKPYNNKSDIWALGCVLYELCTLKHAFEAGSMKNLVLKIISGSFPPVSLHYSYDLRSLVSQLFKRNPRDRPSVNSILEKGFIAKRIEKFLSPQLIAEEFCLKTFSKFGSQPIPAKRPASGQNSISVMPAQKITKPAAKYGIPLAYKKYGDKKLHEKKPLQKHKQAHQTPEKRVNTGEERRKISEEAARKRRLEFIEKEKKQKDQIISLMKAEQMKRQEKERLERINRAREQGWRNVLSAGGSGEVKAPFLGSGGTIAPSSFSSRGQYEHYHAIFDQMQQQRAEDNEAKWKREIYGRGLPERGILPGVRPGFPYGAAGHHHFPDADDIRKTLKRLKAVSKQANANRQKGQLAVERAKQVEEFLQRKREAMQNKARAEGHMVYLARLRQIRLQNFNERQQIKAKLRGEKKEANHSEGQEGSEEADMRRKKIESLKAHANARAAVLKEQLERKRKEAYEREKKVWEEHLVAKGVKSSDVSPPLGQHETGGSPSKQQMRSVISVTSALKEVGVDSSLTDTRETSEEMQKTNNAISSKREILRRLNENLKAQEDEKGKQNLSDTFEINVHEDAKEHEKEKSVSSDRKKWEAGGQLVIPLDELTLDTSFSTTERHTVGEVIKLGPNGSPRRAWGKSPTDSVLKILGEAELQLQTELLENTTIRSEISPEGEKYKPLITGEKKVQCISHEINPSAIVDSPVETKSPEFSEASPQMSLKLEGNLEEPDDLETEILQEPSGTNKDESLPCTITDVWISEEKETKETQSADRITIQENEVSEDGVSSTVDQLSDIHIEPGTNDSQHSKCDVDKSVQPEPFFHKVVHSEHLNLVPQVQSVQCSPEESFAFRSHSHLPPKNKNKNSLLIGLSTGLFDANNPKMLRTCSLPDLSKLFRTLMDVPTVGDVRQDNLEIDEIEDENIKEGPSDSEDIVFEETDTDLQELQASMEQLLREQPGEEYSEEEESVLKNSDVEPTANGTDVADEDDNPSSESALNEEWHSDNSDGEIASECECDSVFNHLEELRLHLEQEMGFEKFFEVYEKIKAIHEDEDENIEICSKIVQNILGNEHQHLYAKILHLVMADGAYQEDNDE
# [2] = target: Myosin-IIIb (Homo sapiens) (UniProt Q8WXR4); assay: Inhibition of MYO3B (unknown origin) assessed as remaining activity at 1 uM by Kinome scan method relative to control
# [3] = target: T2, Phosphorylase b kinase gamma catalytic chain, liver/testis isoform (Homo sapiens) (UniProt P15735); assay: Inhibition of PHKG2 (unknown origin) assessed as remaining activity at 1 uM by Kinome scan method relative to control
# T2 sequence (whole entry): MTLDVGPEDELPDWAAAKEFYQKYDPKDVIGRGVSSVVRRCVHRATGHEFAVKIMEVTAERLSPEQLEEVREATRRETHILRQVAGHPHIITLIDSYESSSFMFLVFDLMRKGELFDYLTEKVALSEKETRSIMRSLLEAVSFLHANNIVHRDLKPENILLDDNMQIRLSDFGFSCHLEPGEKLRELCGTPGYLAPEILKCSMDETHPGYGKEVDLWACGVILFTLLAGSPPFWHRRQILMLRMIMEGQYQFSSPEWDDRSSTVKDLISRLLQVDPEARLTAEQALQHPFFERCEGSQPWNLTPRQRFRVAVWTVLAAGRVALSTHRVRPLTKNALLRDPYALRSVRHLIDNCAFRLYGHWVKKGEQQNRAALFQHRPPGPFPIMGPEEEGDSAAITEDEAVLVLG
# [4] = target: Membrane-associated tyrosine- and threonine-specific cdc2-inhibitory kinase (Homo sapiens) (UniProt Q99640); assay: Inhibition of PKMYT1 (unknown origin) assessed as remaining activity at 1 uM by Kinome scan method relative to control
# [5] = target: cAMP-dependent protein kinase catalytic subunit alpha (Homo sapiens) (UniProt P17612); assay: Inhibition of PKAC-alpha (unknown origin) assessed as remaining activity at 1 uM by Kinome scan method relative to control
# [6] = target: Serine/threonine-protein kinase DCLK1 (Homo sapiens) (UniProt O15075); assay: Inhibition of DCAMKL1 (unknown origin) assessed as remaining activity at 1 uM by Kinome scan method relative to control
# [7] = target: Tyrosine-protein kinase JAK2 (Homo sapiens) (UniProt O60674); assay: Inhibition of JAK2 JH1 domain (unknown origin) assessed as remaining activity at 1 uM by Kinome scan method relative to control
# [8] = target: NT-3 growth factor receptor (Homo sapiens) (UniProt Q16288); assay: Inhibition of TRKC (unknown origin) assessed as remaining activity at 1 uM by Kinome scan method relative to control
# [9] = target: T3, Tyrosine-protein kinase ITK/TSK (Homo sapiens) (UniProt Q08881); assay: Inhibition of ITK (unknown origin) assessed as remaining activity at 1 uM by Kinome scan method relative to control
# T3 sequence (whole entry): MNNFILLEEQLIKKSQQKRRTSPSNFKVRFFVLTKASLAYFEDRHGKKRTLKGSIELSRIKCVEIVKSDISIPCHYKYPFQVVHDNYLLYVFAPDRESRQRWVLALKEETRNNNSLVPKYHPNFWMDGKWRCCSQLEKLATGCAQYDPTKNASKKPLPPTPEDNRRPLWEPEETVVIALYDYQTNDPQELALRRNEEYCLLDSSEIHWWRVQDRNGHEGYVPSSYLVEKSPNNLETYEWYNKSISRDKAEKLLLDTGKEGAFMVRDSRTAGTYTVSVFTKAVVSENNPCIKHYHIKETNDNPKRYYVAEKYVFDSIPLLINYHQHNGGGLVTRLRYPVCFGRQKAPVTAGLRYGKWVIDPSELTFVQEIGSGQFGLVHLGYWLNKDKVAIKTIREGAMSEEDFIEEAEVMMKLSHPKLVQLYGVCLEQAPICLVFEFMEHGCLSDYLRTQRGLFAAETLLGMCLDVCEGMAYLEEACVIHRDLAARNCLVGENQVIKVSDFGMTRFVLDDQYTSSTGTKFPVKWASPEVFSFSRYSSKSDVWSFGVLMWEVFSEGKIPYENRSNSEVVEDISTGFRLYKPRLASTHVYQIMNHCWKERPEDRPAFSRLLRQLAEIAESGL
# [10] = target: Atypical kinase COQ8A, mitochondrial (Homo sapiens) (UniProt Q8NI60); assay: Inhibition of ADCK3 (unknown origin) assessed as remaining activity at 1 uM by Kinome scan method relative to control
# Chain of Atypical kinase COQ8A, mitochondrial (Homo sapiens) (Q8NI60 163-647 limits assumed): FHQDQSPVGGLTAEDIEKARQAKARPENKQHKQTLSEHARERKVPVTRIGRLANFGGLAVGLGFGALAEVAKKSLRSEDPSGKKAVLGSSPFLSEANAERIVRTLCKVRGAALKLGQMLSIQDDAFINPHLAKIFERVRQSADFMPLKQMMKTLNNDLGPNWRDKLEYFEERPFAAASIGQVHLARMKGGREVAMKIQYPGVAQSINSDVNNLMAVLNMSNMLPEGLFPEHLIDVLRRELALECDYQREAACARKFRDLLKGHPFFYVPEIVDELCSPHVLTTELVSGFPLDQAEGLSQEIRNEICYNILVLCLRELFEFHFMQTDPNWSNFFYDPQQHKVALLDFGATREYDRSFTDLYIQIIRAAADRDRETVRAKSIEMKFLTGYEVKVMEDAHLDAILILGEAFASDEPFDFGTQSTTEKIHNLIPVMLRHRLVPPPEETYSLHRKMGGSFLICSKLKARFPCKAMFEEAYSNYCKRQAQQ
# Chain of Serine/threonine-protein kinase DCLK1 (Homo sapiens) (O15075 whole entry, the tested form may be a part): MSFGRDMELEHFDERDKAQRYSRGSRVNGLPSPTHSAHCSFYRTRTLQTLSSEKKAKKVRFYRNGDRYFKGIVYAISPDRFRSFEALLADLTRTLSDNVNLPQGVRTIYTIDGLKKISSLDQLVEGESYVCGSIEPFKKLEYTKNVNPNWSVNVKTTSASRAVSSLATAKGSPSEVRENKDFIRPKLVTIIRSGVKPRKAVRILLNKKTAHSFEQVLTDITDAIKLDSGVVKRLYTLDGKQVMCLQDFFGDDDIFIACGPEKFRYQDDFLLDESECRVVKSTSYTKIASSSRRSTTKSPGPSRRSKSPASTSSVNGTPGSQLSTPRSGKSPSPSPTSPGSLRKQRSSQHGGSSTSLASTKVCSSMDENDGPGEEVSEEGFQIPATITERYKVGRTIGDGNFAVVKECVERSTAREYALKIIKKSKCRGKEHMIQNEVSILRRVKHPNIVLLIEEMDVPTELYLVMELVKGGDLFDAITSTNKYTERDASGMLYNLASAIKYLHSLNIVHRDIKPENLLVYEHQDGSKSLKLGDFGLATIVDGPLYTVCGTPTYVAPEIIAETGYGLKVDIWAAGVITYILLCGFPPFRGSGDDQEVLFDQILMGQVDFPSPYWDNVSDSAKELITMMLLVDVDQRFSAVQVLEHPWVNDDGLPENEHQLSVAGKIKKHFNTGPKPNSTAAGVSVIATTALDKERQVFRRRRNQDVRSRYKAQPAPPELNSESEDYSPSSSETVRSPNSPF
# Chain of NT-3 growth factor receptor (Homo sapiens) (Q16288 32-839 limits assumed): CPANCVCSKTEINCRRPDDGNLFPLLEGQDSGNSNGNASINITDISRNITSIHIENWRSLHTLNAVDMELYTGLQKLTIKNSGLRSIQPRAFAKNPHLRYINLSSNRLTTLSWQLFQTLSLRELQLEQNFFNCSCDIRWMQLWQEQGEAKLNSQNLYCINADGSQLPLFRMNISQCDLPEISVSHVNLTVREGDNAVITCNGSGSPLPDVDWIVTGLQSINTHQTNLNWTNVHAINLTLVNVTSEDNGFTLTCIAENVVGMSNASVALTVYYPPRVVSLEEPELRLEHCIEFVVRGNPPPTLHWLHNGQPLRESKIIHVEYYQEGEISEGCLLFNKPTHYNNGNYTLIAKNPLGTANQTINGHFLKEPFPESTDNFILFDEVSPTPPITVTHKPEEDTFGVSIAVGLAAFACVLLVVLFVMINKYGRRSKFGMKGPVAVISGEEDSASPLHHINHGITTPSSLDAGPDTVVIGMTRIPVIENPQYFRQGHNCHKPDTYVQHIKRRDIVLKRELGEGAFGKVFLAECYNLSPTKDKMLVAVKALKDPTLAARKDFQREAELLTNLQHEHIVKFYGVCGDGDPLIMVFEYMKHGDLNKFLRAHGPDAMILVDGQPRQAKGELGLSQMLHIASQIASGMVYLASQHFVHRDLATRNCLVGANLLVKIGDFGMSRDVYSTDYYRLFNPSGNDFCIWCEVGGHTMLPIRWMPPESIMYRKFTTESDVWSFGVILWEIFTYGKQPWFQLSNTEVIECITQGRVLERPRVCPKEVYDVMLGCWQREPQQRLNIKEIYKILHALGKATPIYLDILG
# Chain of Tyrosine-protein kinase JAK2 (Homo sapiens) (O60674 whole entry, the tested form may be a part): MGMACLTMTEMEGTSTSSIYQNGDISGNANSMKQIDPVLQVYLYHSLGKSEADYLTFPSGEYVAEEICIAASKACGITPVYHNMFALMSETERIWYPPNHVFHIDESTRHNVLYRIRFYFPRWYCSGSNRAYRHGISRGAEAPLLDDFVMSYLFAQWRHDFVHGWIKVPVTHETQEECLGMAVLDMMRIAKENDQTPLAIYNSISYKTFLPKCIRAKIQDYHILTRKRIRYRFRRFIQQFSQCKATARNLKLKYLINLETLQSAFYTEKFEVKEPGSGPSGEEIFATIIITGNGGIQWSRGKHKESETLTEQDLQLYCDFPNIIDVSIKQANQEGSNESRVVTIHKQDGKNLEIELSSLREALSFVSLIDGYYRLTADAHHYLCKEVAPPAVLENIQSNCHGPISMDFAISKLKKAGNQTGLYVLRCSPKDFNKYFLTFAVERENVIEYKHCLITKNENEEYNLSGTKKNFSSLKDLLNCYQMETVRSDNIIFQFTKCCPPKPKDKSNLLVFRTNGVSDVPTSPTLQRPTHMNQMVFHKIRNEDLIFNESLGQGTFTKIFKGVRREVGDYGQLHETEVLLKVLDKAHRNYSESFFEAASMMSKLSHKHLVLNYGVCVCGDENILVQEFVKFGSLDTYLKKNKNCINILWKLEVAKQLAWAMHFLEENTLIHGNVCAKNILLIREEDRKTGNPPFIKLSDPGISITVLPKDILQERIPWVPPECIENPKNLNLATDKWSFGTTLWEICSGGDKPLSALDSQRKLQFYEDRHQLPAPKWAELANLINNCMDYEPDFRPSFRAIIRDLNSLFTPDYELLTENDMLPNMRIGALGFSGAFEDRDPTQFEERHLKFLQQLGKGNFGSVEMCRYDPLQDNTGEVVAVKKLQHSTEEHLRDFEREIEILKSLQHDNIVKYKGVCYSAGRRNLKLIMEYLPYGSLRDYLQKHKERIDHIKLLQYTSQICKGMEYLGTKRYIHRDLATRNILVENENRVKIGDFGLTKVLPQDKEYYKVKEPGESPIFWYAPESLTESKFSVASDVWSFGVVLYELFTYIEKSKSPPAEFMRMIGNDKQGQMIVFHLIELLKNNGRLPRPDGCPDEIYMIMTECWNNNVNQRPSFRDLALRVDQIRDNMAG
# Chain of Membrane-associated tyrosine- and threonine-specific cdc2-inhibitory kinase (Homo sapiens) (Q99640 whole entry): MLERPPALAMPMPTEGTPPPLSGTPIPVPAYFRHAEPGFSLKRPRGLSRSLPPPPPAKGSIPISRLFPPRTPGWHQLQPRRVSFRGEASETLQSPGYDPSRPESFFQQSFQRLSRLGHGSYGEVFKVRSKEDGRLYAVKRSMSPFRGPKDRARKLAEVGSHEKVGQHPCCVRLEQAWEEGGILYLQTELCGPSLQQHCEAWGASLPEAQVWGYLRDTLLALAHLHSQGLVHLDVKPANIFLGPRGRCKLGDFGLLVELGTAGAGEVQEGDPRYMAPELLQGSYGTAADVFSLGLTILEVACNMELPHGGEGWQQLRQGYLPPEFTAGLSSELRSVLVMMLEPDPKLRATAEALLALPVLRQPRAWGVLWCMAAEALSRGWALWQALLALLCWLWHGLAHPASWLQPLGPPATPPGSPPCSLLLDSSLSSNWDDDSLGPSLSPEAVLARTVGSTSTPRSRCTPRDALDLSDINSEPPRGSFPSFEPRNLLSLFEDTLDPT
# Chain of Myosin-IIIb (Homo sapiens) (Q8WXR4 whole entry, canonical isoform): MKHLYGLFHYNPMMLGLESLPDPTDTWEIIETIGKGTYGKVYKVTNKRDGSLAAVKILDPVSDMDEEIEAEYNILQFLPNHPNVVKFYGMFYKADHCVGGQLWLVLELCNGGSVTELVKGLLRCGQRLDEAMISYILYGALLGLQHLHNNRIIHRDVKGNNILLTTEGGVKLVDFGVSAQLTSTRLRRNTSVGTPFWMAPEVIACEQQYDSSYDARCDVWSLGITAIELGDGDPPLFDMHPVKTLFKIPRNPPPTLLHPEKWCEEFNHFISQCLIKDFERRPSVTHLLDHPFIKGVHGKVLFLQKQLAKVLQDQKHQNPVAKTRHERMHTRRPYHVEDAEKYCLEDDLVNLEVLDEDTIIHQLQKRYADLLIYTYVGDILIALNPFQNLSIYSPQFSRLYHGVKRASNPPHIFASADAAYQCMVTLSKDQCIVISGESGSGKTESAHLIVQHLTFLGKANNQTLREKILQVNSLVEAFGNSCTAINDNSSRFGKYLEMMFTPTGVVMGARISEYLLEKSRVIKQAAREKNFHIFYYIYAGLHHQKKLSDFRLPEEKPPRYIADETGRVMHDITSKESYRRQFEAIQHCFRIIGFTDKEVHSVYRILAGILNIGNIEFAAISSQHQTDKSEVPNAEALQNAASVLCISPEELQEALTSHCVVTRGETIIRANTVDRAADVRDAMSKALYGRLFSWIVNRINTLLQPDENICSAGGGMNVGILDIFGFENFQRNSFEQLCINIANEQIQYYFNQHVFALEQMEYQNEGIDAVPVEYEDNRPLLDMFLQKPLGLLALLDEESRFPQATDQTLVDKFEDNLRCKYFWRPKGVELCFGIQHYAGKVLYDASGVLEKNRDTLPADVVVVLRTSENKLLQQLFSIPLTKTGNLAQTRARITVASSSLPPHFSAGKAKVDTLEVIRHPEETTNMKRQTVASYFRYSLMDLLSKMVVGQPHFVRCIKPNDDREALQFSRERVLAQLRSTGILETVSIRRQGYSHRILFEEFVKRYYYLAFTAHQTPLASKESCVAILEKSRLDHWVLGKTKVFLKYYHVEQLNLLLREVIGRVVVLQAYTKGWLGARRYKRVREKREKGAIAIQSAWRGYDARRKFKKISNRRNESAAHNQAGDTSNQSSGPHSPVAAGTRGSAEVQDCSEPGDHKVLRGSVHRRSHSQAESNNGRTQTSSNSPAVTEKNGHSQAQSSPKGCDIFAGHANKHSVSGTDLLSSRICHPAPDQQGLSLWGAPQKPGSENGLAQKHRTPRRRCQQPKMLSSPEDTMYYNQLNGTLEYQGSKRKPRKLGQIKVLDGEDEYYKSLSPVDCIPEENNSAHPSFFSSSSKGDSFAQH
SMILES,Activity [1],Activity [2],Activity [3],Activity [4],Activity [5],Activity [6],Activity [7],Activity [8],Activity [9],Activity [10]
Nc1ccccc1Nc1ccc2c(c1)CCc1ccccc1C2=O,90%,93%,98%,64%,83%,92%,80%,86%,98%,78%
O=C1c2ccc(Nc3ccc(F)cc3F)cc2CCc2ccc(OC[C@H](O)CO)cc21 [Skepinone-L],91%,99%,96%,85%,95%,97%,100%,100%,100%,88%
